{"source": "patent US7056734B1", "about": "“Differentiation of non-insulin producing cells into insulin producing cells by GLP-1 or exendin-4 and uses thereof” (The United States of America as represented by the …, priority 1998, dated 2006)", "key": {"AR42J cells [1]": {"system": "AR42J cells", "assay": "Amylase release from AR42J cells", "format": "cell-based, rat", "method": "Cell Culture. AR42J cells were maintained in Dulbecco's modified Eagle's medium (Gibco, Grand Island, N.Y.) (DMEM) supplemented with 10% Fetal Calf Serum, 100 IU/ml penicillin, 100 μg/ml streptomycin and 2 mM glutamine. Cells from passage 23–36 were used throughout this study.\nAmylase Assay. For amylase secretion, cells were washed free of medium with 2 ml phosphate buffered saline (PBS). Incubation was then carried out in DMEM containing 15 mM HEPES, 0.2% bovine serum albumin (BSA) and 0.01% soybean trypsin inhibitor. The hormones and reagents of interest were added for 50 min at 37° C. The incubation medium was then immediately removed for amylase determination and the cells were again washed in 2 ml ice-cold PBS. […] The released amylase was expressed as the percentage of the total amylase activity of the cells."}, "AR42J cells [2]": {"system": "AR42J cells", "assay": "Intracellular calcium in single AR42J cells (indo-1)", "format": "cell-based, rat", "method": "Measurement of intracellular calcium, [Ca^2+]l. AR42J cells were loaded with the fluorescent Ca^2+ probe, indo-1 acetoxymethyl ester (indo-1/AM). […] Both loading with indo-1 and the experiments were carried out at room temperature (22–24° C.). […] The emission field was restricted to a single cell. Indo-1 was excited at 350±5 nm every 5 ms, and the fluorescence emission was split into wavelength bands of 410±5 and 490±5 nm. […] The cell autofluorescence was assessed in a large number of indo-1 non-loaded cells from the same batch. […] Routinely, the cells were exposed to the test solution for 240–300s. Thereafter, the test solution was washed out, while [Ca^2+]l was monitored for additional 120–180s. The test solutions were prepared just prior to the experiment by adding the hormones in standard bathing solution."}, "islets of Langerhans": {"system": "islets of Langerhans", "assay": "cAMP determinations in isolated islets", "format": "cell-based, rat", "method": "cAMP determinations. Islets of Langerhans were harvested from Wistar rats (Perfetti et al., 1995) and batches of 25 islets were then incubated for 1 h at 37° C. in a buffer containing (mM) 140 NaCl, 5 KCl, 1 NaPO4 1 MgSO4, 5 glucose, 2 CaCl2, 20 HEPES, buffer (pH 7.4) and 0.1% bovine serum albumin. Following this, they were incubated in the same buffer for 1 h in the presence of GLP-1 (1 nM) or exendin-4 (1 nM). Some batches of islets were then washed three times with ice-cold phosphate buffer saline (PBS) and lysed with 1 ml ice-cold […] perchloric acid. Other batches were washed three times in the buffer at 37° C. to remove peptide and left another 15 min before being washed three times in ice-cold PBS followed by lysis with the perchloric acid. The lysates (950 μl) were then transferred to microcentrifuge tubes and cAMP measured as previously described (See Example 1) using a cAMP [^3H] assay kit (Amersham)."}, "AR42J cells [3]": {"system": "AR42J cells", "assay": "Intracellular cAMP in AR42J cells", "format": "cell-based, rat", "conditions": "1 h; GLP-1 0.1 to 100 nM, IBMX 100 nM, CCK 0.1 to 100 nM, exendin-4 0.1 to 10 nM", "method": "Measurement of cAMP. Cells were grown in 12-well dishes and treated with hormones and reagents±IBMX as described above. They were then washed 3 times in ice-cold PBS and lysed with 1 ml ice-cold […] perchloric acid. The lysates (950 μl) were transferred to microcentrifuge tubes and the pH adjusted to 7.0 using 5 M K2CO3. After centrifugation for 5 min at 10^4 rpm, the supernatant was vacuum dried, and then recovered in 200 μl Tris/EDTA buffer. After addition of 0.15 mM Na2CO3 (50 μl) and 0.15 mM ZnSO^4 (50 μl), followed by incubation for 15 min on ice, the salt precipitate was removed by centrifugation for 15 min at 3.5×10^3 rpm and 50 μl of supernatant was assayed using a cAMP [^3] assay kit (Amersham Corp., Arlington Heights, Ill.), (Steiner et al., 1972)."}, "pancreata": {"system": "pancreata", "assay": "Proliferation and differentiation of pancreatic cells after GLP-1 infusion or exendin-4 injection", "format": "in vivo, rat", "conditions": "for total number of insulin positive cells: GLP-1 continuous infusion or exendin-4 repeated ip injection for at least two days; for time of maximal differentiation effect: GLP-1 continuous infusion, exendin-4 daily bolus; for persistence of increased number of insulin producing cells after treatment is discontinued: rat, in vivo", "method": "Exendin-4, in contrast, was administered intraperitoneally one time daily for five days according to the protocol of Example 2."}, "rat acinar cells": {"system": "rat acinar cells", "conditions": "Malhotra et al. 1992, cited from earlier work"}, "non-diabetic mice": {"system": "non-diabetic mice", "assay": "Daily ip exendin-4 in non-diabetic littermates", "format": "in vivo, mouse", "excerpt": "Animals. Four month old Wistar rats from the Wistar colony in the NIA (Baltimore, Md.) were used for the acute experiments of the effects of exendin-4 and GLP-1 (see Example 1). They had been maintained on standard lab chow and fed ad libitum. For the long-term experiments, diabetic mice (C57BLKS/J-Lepr^db/Lepr^db) lacking the leptin receptor, and their non-diabetic littermates were purchased at 4 weeks of age from Jackson Laboratories (Bar Harbor, Me.). They were housed two per cage and also were fed ad libitum. The same mice were caged together for the duration of the study. Wistar rats are caged on wire while the bedding for the mice was a paper based product, “Carefresh” (Absorption Co., Bellingham, Wash.).\nEleven diabetic and 10 non-diabetic animals received […] exendin-4 ip daily thereafter (7–9 am) while 10 diabetic and 10 non-diabetic animals received ip NaCl. Subsequently, whole blood glucose levels, taken from a retro-orbital sinus, were determined in the mice using a Glucometer Elite (Bayer). This regimen was continued for 12–13 weeks. […] Animals were weighed weekly. After one week of the regimen blood samples were again taken from a retro-orbital sinus for determination of insulin and glucose levels. At the end of the regimen, fasting blood samples were obtained for glucose and insulin levels and whole blood containing EDTA was assayed for hemoglobin A1c (Hb A1c) on the same day from the four groups.\nAssays. Plasma glucose was measured by the glucose oxidase method (Wang et al., 1997). Insulin was measured by RIA as previously described (See Example 1). Hb A1c was assayed using a BIO-RAD (Herculas Calif.) DiaSTAT machine which uses low pressure cation exchange chromatography in conjunction with gradient elution to separate hemoglobin subtypes and variants from hemolyzed blood. The separated hemoglobin fractions were monitored by means of absorption of light at 415 nm."}}, "note": "Read-outs that look alike come from different tables or passages of the source."}
{"compound": "CC[C@H](C)[C@H](NC(=O)[C@H](Cc1ccccc1)NC(=O)[C@H](CCC(=O)O)NC(=O)[C@H](CCCCN)NC(=O)[C@H](C)NC(=O)[C@H](C)NC(=O)[C@H](CCC(N)=O)NC(=O)CNC(=O)[C@H](CCC(=O)O)NC(=O)[C@H](CC(C)C)NC(=O)[C@H](Cc1ccc(O)cc1)NC(=O)[C@H](CO)NC(=O)[C@H](CO)NC(=O)[C@@H](NC(=O)[C@H](CC(=O)O)NC(=O)[C@H](CO)NC(=O)[C@@H](NC(=O)[C@H](Cc1ccccc1)NC(=O)[C@@H](NC(=O)CNC(=O)[C@H](CCC(=O)O)NC(=O)[C@H](C)NC(=O)[C@@H](N)Cc1c[nH]cn1)[C@@H](C)O)[C@@H](C)O)C(C)C)C(=O)N[C@@H](C)C(=O)N[C@@H](Cc1c[nH]c2ccccc12)C(=O)N[C@@H](CC(C)C)C(=O)N[C@H](C(=O)N[C@@H](CCCCN)C(=O)NCC(=O)N[C@@H](CCCNC(=N)N)C(N)=O)C(C)C", "note": "[GLP-1]", "values": [{"measurement": "effect on amylase release when given alone", "setting": "AR42J cells [1]; 50 min, glucagon 10 or 100 nM, GLP-1 10 nM, insulin 100 nM, 8-Br-cAMP 100 nM, vanadate 1 mM", "value": "did not influence amylase release"}, {"measurement": "effect on CCK-induced amylase release", "setting": "AR42J cells [1]; combined with CCK (1 nM), genestein 300 μM, vanadate 1 mM", "value": "did not influence amylase release"}, {"measurement": "basal or CCK (1 nM)-induced amylase release after pre-incubation", "setting": "AR42J cells [1]; pre-incubation 8, 24, 48 or 72 h with GLP-1 (10 nM) and insulin (100 nM)", "value": "did not increase"}, {"measurement": "peak [Ca2+]i amplitude, increase over resting indo-1 fluorescence ratio (IFR)", "setting": "AR42J cells [2]; single cells", "value": "1.5–2.5 fold"}, {"measurement": "AR42J cells showing [Ca2+]i response", "setting": "AR42J cells [2]; single cells, CCK 1 nM, glucagon 10 nM", "value": "approximately 50%"}, {"measurement": "cAMP levels 15 min after removal of peptide by three washes", "setting": "islets of Langerhans", "value": "returned to baseline"}, {"measurement": "concentration of maximum cAMP response", "setting": "islets of Langerhans", "value": 1, "unit": "nM"}, {"measurement": "intracellular cAMP levels", "setting": "AR42J cells [3]", "value": "not altered"}, {"measurement": "total number of insulin positive cells", "setting": "pancreata", "value": "increase in total number of insulin positive cells"}, {"measurement": "time of maximal differentiation effect", "setting": "pancreata", "value": "seven days"}, {"measurement": "earliest time at which differentiation effect was observed", "setting": "pancreata; continuous infusion", "value": 1, "unit": "days"}, {"measurement": "cells in treated pancreata positive for PCNA", "setting": "pancreata; continuous infusion, five days", "value": "Approximately 20%"}, {"measurement": "persistence of increased number of insulin producing cells after treatment is discontinued", "setting": "pancreata", "value": "at least two weeks"}]}
{"compound": "exendin-4", "values": [{"measurement": "total amylase released", "setting": "rat acinar cells; CCK alone vs 10^−8 M exendin-4 and CCK together", "value": 16, "unit": "%"}, {"measurement": "concentration at which increased cAMP was seen", "setting": "rat acinar cells", "value": "10^−8 M"}, {"measurement": "effect on amylase release when given alone", "setting": "AR42J cells [1]", "value": "did not appear to influence amylase release"}, {"measurement": "potency on [Ca2+]i relative to GLP-1", "setting": "AR42J cells [2]", "value": "approximately one order of magnitude more potent"}, {"measurement": "cAMP levels 15 min after removal of peptide by three washes", "setting": "islets of Langerhans", "value": "returned to baseline"}, {"measurement": "cAMP levels relative to GLP-1", "setting": "islets of Langerhans; 1 nM, 1 h", "value": "approximately 3 fold"}, {"measurement": "intracellular cAMP levels", "setting": "AR42J cells [3]", "value": "did not alter"}, {"measurement": "total number of insulin positive cells", "setting": "pancreata", "value": "increase in total number of insulin positive cells"}, {"measurement": "time of maximal differentiation effect", "setting": "pancreata", "value": "seven days"}, {"measurement": "persistence of increased number of insulin producing cells after treatment is discontinued", "setting": "pancreata", "value": "at least two weeks"}, {"measurement": "trends in glucose and insulin", "setting": "non-diabetic mice; 12–13 weeks", "value": "the same in the non-diabetic animals with exendin-4 treatment though not as dramatic"}, {"measurement": "Hb A1c", "setting": "non-diabetic mice; 12–13 weeks, p=0.0002", "value": 3.5, "unit": "%"}, {"measurement": "fasting glucose level after one week of treatment", "setting": "non-diabetic mice; NaCl-treated 135±5, p<0.05", "value": "70 ± 25", "unit": "mg/dL"}, {"measurement": "deaths just after receiving exendin-4", "setting": "non-diabetic mice; day eight", "value": "two of the non-diabetic mice"}]}
